{"source": "patent US9725423B2", "about": "“Tetrazolinone compound and applications thereof” (SUMITOMO CHEMICAL COMPANY, LIMITED, priority 2012, dated 2017)"}
{"system": "cucumber powdery mildew fungus (Sphaerotheca fuliginea)", "test": "Cucumber powdery mildew control test, foliar spray on cucumber (Test Examples 6, 12, Comparative Test Example)", "format": "in vivo", "settings": "200 ppm, cucumber (SAGAMI HANJIRO), 8 days after inoculation", "units": {"area of lesion spots relative to that on an untreated plant": "%"}}
{"compound": "CC(=NOCc1c(C)cccc1-n1nnn(C)c1=O)c1cccc(C(F)(F)F)c1", "note": "[1-{3-methyl-2-[1-(3-trifluoromethylphenyl)ethylideneaminooxymethyl]phenyl}-4-methyl-1,4-dihydrotetrazol-5-one]", "area of lesion spots relative to that on an untreated plant": "≤ 30"}
{"compound": "CC(=NOCc1cccc(C)c1-n1nnn(C)c1=O)c1cccc(C(F)(F)F)c1", "note": "[1-methyl-4-{2-methyl-6-[1-(3-trifluoromethylphenyl)ethylideneaminooxymethyl]phenyl}-1,4-dihydrotetrazol-5-one]", "area of lesion spots relative to that on an untreated plant": "≥ 70"}
{"system": "diamondback moth (Plutella xylostella)", "test": "Diamondback moth mortality test on sprayed cabbage (Test Example 15)", "format": "in vivo", "settings": "120 h, 20 mL/cup sprayed on cabbage, second-instar larvae, 25° C., after 5 days", "protocol": "Each of formulations of the present compounds 6, 9, 26, 28, 31, 32, 33, 36, 71, 109, 114, 115, 125, and 149 obtained in Formulation Example 6 was diluted with water so that the concentration of the active ingredient is controlled to 500 ppm to prepare a test spraying solution. Meanwhile, the above test chemical solution was sprayed over three-leaf stage cabbage sowed in a polyethylene cup in the proportion of 20 mL/cup. After drying the chemical solution, stem and leaf portions were cut off and put in a 50 mL cup and five second-instar larvae of diamondback moth (Plutella xylostella) were released, and then the cup was capped. The cup was stored at 25° C. and, after 5 days, the number of surviving worms was counted and mortality was determined by the following equation. Mortality (%)=[(Number of dead insects)/(Number of tested insects)]×100", "units": {"mortality at 500 ppm": "%"}}
{"compound": "Cn1nnn(-c2cccc(Cl)c2CON=C(c2ccccc2)C(F)(F)F)c1=O", "note": "[present compound 26, 1-[3-chloro-2-(2,2,2-trifluoro-1-phenylethylideneaminooxymethyl)phenyl]-4-methyl-1,4-dihydrotetrazol-5-one]", "mortality at 500 ppm": "≥ 80"}
{"compound": "CC(=NOCc1c(C)cccc1-n1nnn(C)c1=O)c1ccccc1", "note": "[present compound 149, 1-[2-(1-phenylethylideneaminooxymethyl)-3-methylphenyl]-4-methyl-1,4-dihydrotetrazol-5-one]", "mortality at 500 ppm": "≥ 80"}
{"compound": "CC(=NOCc1c(Cl)cccc1-n1nnn(C)c1=O)c1cccc(OC(F)(F)C(F)F)c1", "note": "[present compound 9, 1-(3-chloro-2-{1-[3-(1,1,2,2-tetrafluoroethoxyl)phenyl]ethylideneaminooxymethyl]phenyl}-4-methyl-1,4-dihydrotetrazol-5-one]", "mortality at 500 ppm": "≥ 80"}
{"compound": "CC(=NOCc1c(Cl)cccc1-n1nnn(C)c1=O)c1cc(F)cc(F)c1", "note": "[present compound 28, 1-{3-chloro-2-[1-(3,5-difluorophenyl)ethylideneaminooxymethyl]phenyl}-4-methyl-1,4-dihydrotetrazol-5-one]", "mortality at 500 ppm": "≥ 80"}
{"compound": "CC(=NOCc1c(-n2nnn(C)c2=O)cccc1C(F)(F)F)c1cccc(OC(F)(F)F)c1", "note": "[present compound 114, 1-{2-[1-(3-trifluoromethoxyphenyl)ethylideneaminooxymethyl]-3-trifluoromethylphenyl}-4-methyl-1,4-dihydrotetrazol-5-one]", "mortality at 500 ppm": "≥ 80"}
{"compound": "CC(=NOCc1c(C)cccc1-n1nnn(C)c1=O)c1cccc(OC(F)(F)F)c1", "note": "[present compound 32, 1-{3-methyl-2-[1-(3-trifluoromethoxyphenyl)ethylideneaminooxymethyl]phenyl}-4-methyl-1,4-dihydrotetrazol-5-one]", "mortality at 500 ppm": "≥ 80"}
{"compound": "CC(=NOCc1c(Cl)cccc1-n1nnn(C)c1=O)c1cccc([N+](=O)[O-])c1", "note": "[present compound 6, 1-{3-chloro-2-[1-(3-nitrophenyl)ethylideneaminooxymethyl]phenyl}-4-methyl-1,4-dihydrotetrazol-5-one]", "mortality at 500 ppm": "≥ 80"}
{"compound": "CC(=NOCc1c(C)cccc1-n1nnn(C)c1=O)c1cccc(N(C)C)c1", "note": "[present compound 109, 1-{2-[1-(3-dimethylaminophenyl)ethylideneaminooxymethyl]-3-methylphenyl}-4-methyl-1,4-dihydrotetrazol-5-one]", "mortality at 500 ppm": "≥ 80"}
{"compound": "CC(=NOCc1c(C2CC2)cccc1-n1nnn(C)c1=O)c1cccc2c1CCC2", "note": "[present compound 125, 1-[3-cyclopropyl-2-(1-indan-4-ylethylideneaminooxymethyl)phenyl]-4-methyl-1,4-dihydrotetrazol-5-one]", "mortality at 500 ppm": "≥ 80"}
{"compound": "CC(=NOCc1c(C)cccc1-n1nnn(C)c1=O)c1cccc(OC(F)(F)C(F)F)c1", "note": "[present compound 33, 1-(3-methyl-2-{1-[3-(1,1,2,2-tetrafluoroethoxyl)phenyl]ethylideneaminooxymethyl}phenyl)-4-methyl-1,4-dihydrotetrazol-5-one]", "mortality at 500 ppm": "≥ 80"}
{"compound": "CC(=NOCc1c(-n2nnn(C)c2=O)cccc1C(F)(F)F)c1ccc2c(c1)CCC2", "note": "[present compound 115, 1-[2-(1-indan-5-ylethylideneaminooxymethyl)-3-trifluoromethylphenyl]-4-methyl-1,4-dihydrotetrazol-5-one]", "mortality at 500 ppm": "≥ 80"}
{"compound": "CC(=NOCc1c(C)cccc1-n1nnn(C)c1=O)c1cccc(C)c1", "note": "[present compound 71, 1-{3-methyl-2-[1-(3-methylphenyl)ethylideneaminooxymethyl]phenyl}-4-methyl-1,4-dihydrotetrazol-5-one]", "mortality at 500 ppm": "≥ 80"}
{"compound": "CC(=NOCc1c(C)cccc1-n1nnn(C)c1=O)c1cccc(Cl)c1", "note": "[present compound 31, 1-{3-methyl-2-[1-(3-chlorophenyl)ethylideneaminooxymethyl]phenyl}-4-methyl-1,4-dihydrotetrazol-5-one]", "mortality at 500 ppm": "≥ 80"}
{"compound": "CC(=NOCc1c(C)cccc1-n1nnn(C)c1=O)c1ccc2ccccc2c1", "note": "[present compound 36, 1-[3-methyl-2-(1-naphthalen-2-ylethylideneaminooxymethyl)phenyl]-4-methyl-1,4-dihydrotetrazol-5-one]", "mortality at 500 ppm": "≥ 80"}
